The record followed here is patent US10246417B2, “Picolinamides as fungicides” (Dow AgroSciences LLC, priority 2017, dated 2019).

The structures appear in SMILES notation.

In the assay the test system is Phakopsora pachyrhizi. Put plainly: Fungicidal activity: Asian soybean rust (PHAKPA), soybean seedlings. The class given is in vivo. As to conditions: High volume, 25 ppm, 3 Day Curative. The method, then: Example C: Evaluation of Fungicidal Activity: Asian Soybean Rust (Phakopsora pachyrhizi; Bayer Code […]) Technical grades of materials were dissolved in acetone, which were then mixed with nine volumes of water containing 0.011% Tween 20. The fungicide solutions were applied onto soybean seedlings using an automated booth sprayer to run-off. All sprayed plants were allowed to air dry prior to further handling. Soybean plants (variety Williams 82) were grown in soil-less Metro mix, with one plant per pot. Two week old seedlings were used for testing. Plants were inoculated either 3 days prior to or 1 day after fungicide treatments. Plants were incubated for 24 h in a dark dew room at 22° C. and 100% relative humidity then transferred to a growth room at 23° C. for disease to develop. Disease severity was assessed on the sprayed leaves.
In the case of `COc1ccnc(C(=O)N[C@@H](C)C(=O)O[C@H](C)[C@H](c2ccc(F)cc2C)C(C)C)c1OC(C)=O` [compound 192], the “PHAKPA disease control, 3DC” value is on record as “B (≤80)”.

As for `COc1ccnc(C(=O)N[C@@H](C)C(=O)O[C@@H](C)[C@H](c2ccc(C)cc2F)C(C)C)c1OC(C)=O` [compound 366], the “PHAKPA disease control, 3DC” value is “B (≤80)”.

For the compound `COc1ccnc(C(=O)N[C@@H](C)C(=O)O[C@@H](C)[C@@H](c2ccc(C)cc2F)C(C)C)c1OC(C)=O` [compound 369], the “PHAKPA disease control, 3DC” value is “B (≤80)”.

For `COc1ccnc(C(=O)N[C@@H](C)C(=O)O[C@@H](C)[C@@H](c2ccc(F)cc2C)C(C)C)c1OC(C)=O` [compound 178], the “PHAKPA disease control, 3DC” value is “B (≤80)”.
